Experimental data from ChEMBL document CHEMBL1201862, “PubChem BioAssay data set” (2004).
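Values below derive from 48-hour exposures of cells grown in 96-well plates, with endpoints linearly interpolated between the two concentrations bracketing the appropriate inhibition level. The concentration for 50% growth inhibition is given as GI50.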 Activity calls are given as the source filed them. Cut-off read from the data, not from the text of the source: active = GI50 up to about 1.1 µM and inactive = higher.

Columns and labels:
Assay in all cases: NCI-60 cell line screen, 48 h
[1] = test system: DU-145
[2] = test system: MDA-MB-231
[3] = test system: MOLT-4
[4] = test system: U-251
[5] = test system: Malme-3M
[6] = test system: OVCAR-5
[7] = test system: HT-29
[8] = test system: HCT-15
[9] = test system: SK-OV-3
[10] = test system: UACC-257
[11] = test system: SN12C
[12] = test system: CCRF-CEM
[13] = test system: RPMI-8226
[14] = test system: MCF7
[15] = test system: EKVX
[16] = test system: KM12
[17] = test system: MDA-N
[18] = test system: MDA-MB-435
[19] = test system: HCC 2998
[20] = test system: COLO 205
[21] = test system: HCT-116
[22] = test system: CAKI-1
[23] = test system: SW-620
[24] = test system: PC-3
[25] = test system: K562
[26] = test system: SF-268
[27] = test system: NCI-H460
[28] = test system: ACHN
[29] = test system: SNB-75
[30] = test system: NCI-H226
[31] = test system: BT-549
[32] = test system: SF-295
[33] = test system: T47D
[34] = test system: IGROV-1
[35] = test system: M14
[36] = test system: A549
[37] = test system: HOP-62
[38] = test system: UACC-62
[39] = test system: SK-MEL-2
[40] = test system: OVCAR-3
[41] = test system: OVCAR-8
[42] = test system: NCI-H522
[43] = test system: HOP-92
[44] = test system: 786-0
[45] = test system: SK-MEL-28
[46] = test system: HL-60
[47] = test system: SNB-19
[48] = test system: SK-MEL-5
[49] = test system: OVCAR-4
[50] = test system: Hs-578T
[51] = test system: RXF 393
[52] = test system: TK-10
[53] = test system: LOX IMVI
[54] = test system: NCI/ADR-RES
[55] = test system: NCI-H23
[56] = test system: SF-539
[57] = test system: SR
[58] = test system: UO-31

## COc1cc(C2SC(=N)Nc3c2c(C)nn3C(=O)c2ccc(Cl)cc2)ccc1O (stereo not given)
[1]
  GI50: > 10 µM (inactive)
[2]
  GI50: > 10 µM (inactive)
[3]
  GI50: > 10 µM (inactive)
[4]
  GI50: > 10 µM (inactive)
[5]
  GI50: > 10 µM (inactive)
[6]
  GI50: > 10 µM (inactive)
[7]
  GI50: > 10 µM (inactive)
[8]
  GI50: > 10 µM
[9]
  GI50: > 10 µM (inactive)
[10]
  GI50: > 10 µM (inactive)
[11]
  GI50: > 10 µM (inactive)
[12]
  GI50: > 10 µM (inactive)
[13]
  GI50: > 10 µM (inactive)
[14]
  GI50: > 10 µM (inactive)
[15]
  GI50: > 10 µM (inactive)
[16]
  GI50: > 10 µM (inactive)
[17]
  GI50: 0.236 µM (active)
[18]
  GI50: > 10 µM (inactive)
[19]
  GI50: > 10 µM (inactive)
[20]
  GI50: > 10 µM (inactive)
[21]
  GI50: > 10 µM (inactive)
[22]
  GI50: > 10 µM (inactive)
[23]
  GI50: > 10 µM (inactive)
[24]
  GI50: > 10 µM (inactive)
[25]
  GI50: > 10 µM (inactive)
[26]
  GI50: > 10 µM (inactive)
[27]
  GI50: > 10 µM (inactive)
[28]
  GI50: > 10 µM (inactive)
[29]
  GI50: > 10 µM (inactive)
[30]
  GI50: > 10 µM (inactive)
[31]
  GI50: > 10 µM (inactive)
[32]
  GI50: > 10 µM (inactive)
[33]
  GI50: > 10 µM (inactive)
[34]
  GI50: > 10 µM (inactive)
[35]
  GI50: > 10 µM (inactive)
[36]
  GI50: > 10 µM (inactive)
[37]
  GI50: > 10 µM (inactive)
[38]
  GI50: > 10 µM (inactive)
[39]
  GI50: > 10 µM (inactive)
[40]
  GI50: > 10 µM (inactive)
[41]
  GI50: > 10 µM (inactive)
[42]
  GI50: > 10 µM (inactive)
[43]
  GI50: > 10 µM (inactive)
[44]
  GI50: > 10 µM (inactive)
[45]
  GI50: > 10 µM (inactive)
[46]
  GI50: > 10 µM (inactive)
[47]
  GI50: > 10 µM (inactive)
[48]
  GI50: > 10 µM (inactive)
[49]
  GI50: > 10 µM (inactive)
[50]
  GI50: > 10 µM (inactive)
[51]
  GI50: > 10 µM (inactive)
[52]
  GI50: > 10 µM (inactive)
[53]
  GI50: > 10 µM (inactive)
[54]
  GI50: > 10 µM (inactive)
[55]
  GI50: > 10 µM (inactive)
[56]
  GI50: > 10 µM (inactive)
[57]
  GI50: > 10 µM (inactive)

## O=C(O)CCCN/C(=C1\C(=O)C(=O)N(c2ccccc2)C1=O)c1ccccc1
[1]
  GI50: > 100 µM (inactive)
[2]
  GI50: > 100 µM (inactive)
[3]
  GI50: > 100 µM (inactive)
[4]
  GI50: > 100 µM (inactive)
[5]
  GI50: > 100 µM (inactive)
[58]
  GI50: > 100 µM (inactive)
[6]
  GI50: > 100 µM (inactive)
[7]
  GI50: > 100 µM (inactive)
[8]
  GI50: > 100 µM
[9]
  GI50: > 100 µM (inactive)
[10]
  GI50: > 100 µM (inactive)
[11]
  GI50: > 100 µM (inactive)
[12]
  GI50: > 100 µM (inactive)
[13]
  GI50: > 100 µM (inactive)
[14]
  GI50: > 100 µM (inactive)
[15]
  GI50: > 100 µM (inactive)
[16]
  GI50: > 100 µM (inactive)
[17]
  GI50: > 100 µM (inactive)
[18]
  GI50: > 100 µM (inactive)
[19]
  GI50: > 100 µM (inactive)
[20]
  GI50: > 100 µM (inactive)
[21]
  GI50: > 100 µM (inactive)
[22]
  GI50: > 100 µM (inactive)
[23]
  GI50: > 100 µM (inactive)
[24]
  GI50: > 100 µM (inactive)
[25]
  GI50: > 100 µM (inactive)
[26]
  GI50: > 100 µM (inactive)
[27]
  GI50: > 100 µM (inactive)
[28]
  GI50: > 100 µM (inactive)
[29]
  GI50: > 100 µM (inactive)
[30]
  GI50: > 100 µM (inactive)
[31]
  GI50: > 100 µM (inactive)
[32]
  GI50: > 100 µM (inactive)
[33]
  GI50: > 100 µM (inactive)
[34]
  GI50: > 100 µM (inactive)
[35]
  GI50: > 100 µM (inactive)
[36]
  GI50: > 100 µM (inactive)
[37]
  GI50: > 100 µM (inactive)
[38]
  GI50: > 100 µM (inactive)
[39]
  GI50: > 100 µM (inactive)
[40]
  GI50: > 100 µM (inactive)
[41]
  GI50: > 100 µM (inactive)
[42]
  GI50: > 100 µM (inactive)
[43]
  GI50: > 100 µM (inactive)
[44]
  GI50: > 100 µM (inactive)
[45]
  GI50: > 100 µM (inactive)
[46]
  GI50: > 100 µM (inactive)
[47]
  GI50: > 100 µM (inactive)
[48]
  GI50: > 100 µM (inactive)
[49]
  GI50: 37.2 µM (inactive)
[50]
  GI50: > 100 µM (inactive)
[51]
  GI50: > 100 µM (inactive)
[52]
  GI50: > 100 µM (inactive)
[53]
  GI50: > 100 µM (inactive)
[54]
  GI50: > 100 µM (inactive)
[55]
  GI50: > 100 µM (inactive)
[56]
  GI50: 82 µM (inactive)
[57]
  GI50: 20 µM (inactive)
